Data as given in article PMC6070535, “Identification, Characterization, and X-ray Crystallographic Analysis of a Novel Type of Lectin AJLec from the Sea Anemone Anthopleura japonica” (Scientific Reports, 2018).
In brackets after ≈: the same amount, converted by molar mass.

Biological target: T1, AJLec (Anthopleura japonica, UniProt A0A2Z5WLM1)
T1 construct: mature 164 residues, 18,491 Da, precursor 186 residues; N-terminal pyroglutamate; disulfide-linked homodimer (36 kDa); Ca2+ dependent
T1 sequence (A0A2Z5WLM1 23-186): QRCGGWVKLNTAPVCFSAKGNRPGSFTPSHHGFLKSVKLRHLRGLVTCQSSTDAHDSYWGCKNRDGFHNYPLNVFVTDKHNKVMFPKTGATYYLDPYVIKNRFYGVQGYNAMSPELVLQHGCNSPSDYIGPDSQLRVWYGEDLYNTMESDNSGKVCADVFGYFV
Assay: hemagglutination inhibition, rabbit erythrocytes
Assay type: cell-based
Conditions: 2.4–2.6 μg/mL AJLec, TBS-Ca2+
From the text: hemagglutination inhibition, rabbit erythrocytes on AJLec

First: OC[C@H]1O[C@H](OC[C@H]2OC(O)(CO)[C@@H](O)[C@@H]2O)[C@H](O)[C@@H](O)[C@@H]1O (some centres unmarked) [Palatinose]
Second: OC[C@H]1O[C@@H](O[C@@H]2[C@@H](CO)OC(O)(CO)[C@H]2O)[C@H](O)[C@@H](O)[C@H]1O (some centres unmarked) [Lactulose]
The “Minimum inhibitory concentration” value of the first is 31-fold higher: 3100 µM (≈ 1060 µg/mL) for the first, 100 µM (≈ 34.2 µg/mL) for the second.

First: OC[C@H]1O[C@H](O[C@H]2[C@H](O)[C@@H](O)C(O)O[C@@H]2CO)[C@H](O)[C@@H](O)[C@@H]1O (some centres unmarked) [Maltose]
Second: OC[C@H]1O[C@@H](O[C@H]2[C@H](O)[C@@H](O)C(O)O[C@@H]2CO)[C@H](O)[C@@H](O)[C@H]1O (some centres unmarked) [Lactose]
The “Minimum inhibitory concentration” value of the first is 63-fold higher: 6300 µM (≈ 2160 µg/mL) for the first, 100 µM (≈ 34.2 µg/mL) for the second.

OC[C@H]1O[C@H](OC[C@H]2OC(O)[C@H](O)[C@@H](O)[C@@H]2O)[C@H](O)[C@@H](O)[C@H]1O (some centres unmarked) [Melibiose] and OC[C@H]1O[C@H](OC[C@H]2O[C@H](O[C@]3(CO)O[C@H](CO)[C@@H](O)[C@@H]3O)[C@H](O)[C@@H](O)[C@@H]2O)[C@H](O)[C@@H](O)[C@H]1O [Raffinose] are the same in “Minimum inhibitory concentration” value: 800 µM (≈ 274 µg/mL) for the first, 800 µM (≈ 404 µg/mL) for the second.

Compared with CO[C@@H]1O[C@H](CO)[C@H](O)[C@H](O)[C@H]1O [Me-β-Gal], CO[C@H]1O[C@H](CO)[C@H](O)[C@H](O)[C@H]1O [Me-α-Gal] is 2-fold higher in “Minimum inhibitory concentration” value: 400 µM (≈ 77.7 µg/mL) for the first, 800 µM (≈ 155 µg/mL) for the second.

C[C@@H]1OC(O)[C@@H](O)[C@H](O)[C@@H]1O (stereo partly drawn) [L-Fucose] and C[C@@H]1OC(O)[C@H](O)[C@H](O)[C@H]1O (stereo partly drawn) [L-Rhamnose] are the same in “Minimum inhibitory concentration” value: 3000 µM (≈ 492 µg/mL) for the first, 3000 µM (≈ 492 µg/mL) for the second.

Going from OC[C@H]1OC(O)[C@H](O)[C@@H](O)[C@H]1O (some centres unmarked) [Galactose] to CC(=O)N[C@H]1C(O)O[C@H](CO)[C@H](O)[C@@H]1O (some centres unmarked) [N-Acetylgalactosamine], the “Minimum inhibitory concentration” value rises from 50 µM (≈ 9.01 µg/mL) to 25000 µM (≈ 5530 µg/mL) (500-fold).

In the case of CO[C@H]1O[C@H](CO)[C@@H](O)[C@H](O)[C@H]1O [Me-α-Glc], the “Minimum inhibitory concentration” value is reported as greater than 25000 µM.
With CO[C@H]1O[C@H](CO)[C@@H](O)[C@H](O)[C@@H]1O [Me-α-Man] the “Minimum inhibitory concentration” value was greater than 25000 µM.
OC[C@H]1OC(O)[C@H](O)[C@@H](O)[C@@H]1O (stereo partly drawn) [D-Glucose] was tested, and the “Minimum inhibitory concentration” value was greater than 25000 µM.
For OC[C@H]1OC(O)[C@@H](O)[C@@H](O)[C@@H]1O (stereo partly drawn) [D-Mannose], the “Minimum inhibitory concentration” value was greater than 25000 µM.

Biological target: AJLec (Anthopleura japonica Lectin) (Anthopleura japonica)
Assay: crystal structure; AJLec with 100 mM lactose and 1 mM CaCl2 in TBS; vapor diffusion, 200 mM NaCl, 100 mM HEPES pH 7.5, 30% PEG 3350, 20 °C; two chains per asymmetric unit
Conditions: not given

“AJLec (Anthopleura japonica Lectin) (natural protein)” was tested, and the stoichiometry N was 2.
